Results reported in patent US20060258697A1, “Method of augmenting the antitumor activity of anticancer agents” (priority 2003, published 2006).
Like-named read-outs stand apart in the source and are kept apart here.

Legend:
[1] = tested on: A253 squamous cell carcinoma of the head and neck xenografts; assay: Cure rate / antitumor activity in nude mice bearing A253 head and neck xenografts; type: in vivo
Method: (§1) 5-Methylselenocysteine (MSC). Two schedules were evaluated: 1) in combination with irinotecan, MSC (0.2 mg/mouse/d×28) was administered orally for 28 days with the first dose administered daily for seven days prior to the weekly drug administration and 2) in combination with other drugs, MSC was administered orally (0.2 mg/mouse/d×14) daily for 14 days with the first dose administered daily for seven days prior to the single i.v. administration of taxol, CDDP, Dox, taxotere and cyclophosphamide.
(§2) Anticancer drug administration. The anticancer drugs administration schedule was as follows. • i. Irinotecan (CPT-11), weekly i.v. push for four (4) weeks, • ii. Taxol, single i.v. push, • iii. Cisplatin (CDDP), single i.v. push. • iv. Doxorubin (Dox), single i.v. push. • v. Cyclophosphamide, single i.v. push. • vi. Oxaliplatin, single i.v. push • vii. Taxotere, single i.v. push
(§3) Tumor Xenografts. […] The following tumor xenografts were established. • i. HCT-8: poorly-differentiated colon carcinoma, expressing wild type p53 • ii. HT-29: well-differentiated colon carcinoma expressing mutant p53 • iii. A253: well-differentiated squamous cell carcinoma of the head and neck (SCCHN) expressing no p53 • iv. FaDu: poorly-differentiated squamous cell carcinoma of the head and neck (SCCHN) expressing mutant p53
This example describes the comparative antitumor activity of MSC and SLM in combination with the maximum tolerated dose of irinotecan. […] As an illustration, MSC and SLM were used in combination with irinotecan. The results, shown in FIG. 3, represent a comparative evaluation of the effect of MSC and SLM (0.2 mg/mouse/d×28) on the antitumor activity of irinotecan (100 mg/kg/wk×4).
To determine whether therapeutic synergy achieved with irinotecan in xenografts is specific for MSC, the antitumor activity of irinotecan with and without two selenium-containing compounds, MSC and SLM were compared in xenografts bearing A253 (SCCHN) tumors for the […] (200 mg/kg/wk×4). The data compare the antitumor activity of MSC with SLM in combination with irinotecan (200 mg/kg/wk×4).
(§4) This example describes the modulation of the antitumor activity of anticancer drugs by MSC in mice bearing human tumors. […] To determine whether modulation of the therapeutic efficacy and cure of irinotecan by MSC is drug specific, the antitumor activity of drugs, representing different classes and mechanisms of action were evaluated alone and in combination with non-toxic doses and schedules of MSC (0.2 mg/mouse/d×14) in xenografts bearing human A253 and FaDu (SCCHN) tumors (FIG. 5). The data in FIG. 5 represent the use of the MTD doses of cisplatin (8 mg/kg×1), cyclophosphamide (100 mg/kg×1), taxol (35 mg/kg ×1.) and doxorubicin (10 mg/kg×1).

in vivo [2] = settings: nude, mouse
nude mice [3] = settings: taxotere 100 mg/kg single i.v.
Method: Taxotere was administered to nude mice at non-toxic (60 mg/kg) or toxic (100 mg/kg) dose by a single i.v. injection and MSC was administered by oral route daily for 14 days with the first dose of MSC started before taxotere treatment.

[4] = tested on: FaDu squamous cell carcinoma of the head and neck xenografts; assay: Cure rate / antitumor activity in nude mice bearing FaDu head and neck xenografts; type: in vivo; settings: for % CR of Surviving Animals FaDu: without or with MSC 0.2 mg/mouse/d
Method: as §1, §2
Tumor Xenografts. […] The following tumor xenografts were established. • i. HCT-8: poorly-differentiated colon carcinoma, expressing wild type p53 • ii. HT-29: well-differentiated colon carcinoma expressing mutant p53 • iii. A253: well-differentiated squamous cell carcinoma of the head and neck (SCCHN) expressing no p53 • iv. FaDu: poorly-differentiated squamous cell carcinoma of the head and neck (SCCHN) expressing mutant p53 […]
as §4
In mice, MSC was orally administered at 0.2 mg/mouse/d with the first daily dose administered seven days prior to single i.v. administration of drug and continuous for additional seven days for a total MSC treatment of 14 days.

Rats = settings: oxaliplatin 10 mg/kg single i.v.; alone or with MSC […]
Method: In this example, the effect of selenium on the antitumor activity of oxaliplatin and doxorubicin was tested as follows. The effect of selenium was determined on the antitumor activity of oxaliplatin in rats bearing advanced ward colorectal carcinoma (3000 mg). Rats received MSC (0.75 mg/rat/d) or saline fourteen days prior to single i.v. injection of oxaliplatin of 5 and 10 mg/kg with continuous daily oral administration of MSC for additional seven days for a total of 21 days of MSC and oxaliplatin is administered on day 14 after saline and MSC treatment.

HT-29 colon xenografts = assay: Cure rate / antitumor activity in nude mice bearing HT-29 colon xenografts; type: in vivo; settings: for % CR of Surviving Animals HT-29: without or with MSC 0.2 mg/mouse/d
nude mice [5] = assay: Irinotecan lethality / survival with and without selenium compound; type: in vivo; settings: for Survivor (%): without or with MSC 0.2 mg/mouse/d × 28 p.o.
Method: This example describes the evaluation of the effect of selenium containing compounds on the antitumor activity of irinotecan. […] Irinotecan was administered at 100 mg/kg/wk for 4 weeks (MTD) and 200 mg/kg/wk for 4 weeks (toxic) alone and in combination with 0.2 mg/mouse/d of MSC for 28 days to nude mice bearing HCT-8 colon xenografts. […] Thus, MSC potentiates the efficacy of irinotecan by increasing cure rate and by decreasing toxicity.
Nude mice (5 mice/group; experiment repeated ≧3 times) were treated with 0.2 mg/mouse/day of SLM (data replicated with MSC) for 21, 7, 3, 1, or 0 days prior to initiation of weekly IV irinotecan at 2 ×the MTD (at 200mg/kg/week×4). […] 3 days pre-treatment was associated with 80% survivorship while 0-1 days were associated with 60% (45% survivorship for irinotecan alone) (FIG. 13). Thus, the optimal duration of pre-treatment with SLM 0.2mg/mouse/day for maximum protection against irinotecan lethality was identified to be at least 1 week.

HCT-8 colon xenografts = assay: Cure rate / antitumor activity in nude mice bearing HCT-8 colon xenografts; type: in vivo; settings: for % CR of Surviving Animals HCT-8: without or with MSC 0.2 mg/mouse/d
Method: as §1, §2, §3
This example describes the evaluation of the effect of selenium containing compounds on the antitumor activity of irinotecan. […] Irinotecan was administered at 100 mg/kg/wk for 4 weeks (MTD) and 200 mg/kg/wk for 4 weeks (toxic) alone and in combination with 0.2 mg/mouse/d of MSC for 28 days to nude mice bearing HCT-8 colon xenografts.
For these experiments, FUra was administered by i.v. push weekly times 4 and MSC by p.o. once a day for 6 weeks, the first dose being given 3 weeks before FUra administration. Irinotecan was administered by i.v. 100 mg/kg/week once a week for 4 weeks and MSC (0.2 mg/day), by p.o. daily for 28 days with the first dose started 7 days prior to irinotecan treatment.

in vivo [6] = settings: rat
[7] = Table 3 first column pair (head printed 'FaUra'), drug dose mg/kg and MSC mg/mouse/day in parentheses of Treatment
[8] = Table 3 first column pair (head printed 'FaUra'), drug dose mg/kg and MSC mg/mouse/day in parentheses of Treatment, schedules per footnote
[9] = Table 3 (A253), drug dose mg/kg and MSC mg/mouse/day in parentheses of Treatment
[10] = drug 100 mg/kg/week i.v. × 4, MSC 0.2 mg/day/mouse p.o. 42 days started 21 days before drug

## CC(=O)O[C@@]12CO[C@@H]1C[C@H](O)[C@@]1(C)C(=O)[C@H](O)C3=C(C)[C@@H](OC(=O)[C@H](O)[C@@H](NC(=O)OC(C)(C)C)c4ccccc4)C[C@@](O)([C@@H](OC(=O)c4ccccc4)[C@H]21)C3(C)C [Taxotere]
[1]
  CR (%) (complete tumor regression): 0%
  PR (%) (partial tumor regression, >50% tumor reduction): 20%
[1]; A253, taxotere 60 mg/kg single i.v., alone or with MSC 0.2 mg/mouse/d × 14
  animals cured of their tumors: insensitive
In vivo [2]
  MTD: 60 mg/kg
Nude mice [3]
  lethality: 40%
[4]; FaDu, taxotere 60 mg/kg single i.v., alone or with MSC 0.2 mg/mouse/d × 14
  animals cured of their tumors: insensitive
[4]; [7]
  PR (%) (partial tumor regression, >50% tumor reduction): 40%
[4]; [8]
  CR (%) (complete tumor regression): 0%

## O=C1[O][Pt]2([NH][C@@H]3CCCC[C@H]3[NH]2)[O]C1=O [Oxaliplatin, oxaliplatin]
Rats
  toxicity (weight loss and diarrhea): toxic
[1]; mouse, in vivo
  CR (%) (complete tumor regression): 0%
  PR (%) (partial tumor regression, >50% tumor reduction): 0%
Mice; drug alone (−) or with MSC (+)
  MTD (mg/kg) Mice: 7.5 mg/kg
[4]; mouse, in vivo
  CR (%) (complete tumor regression): 0%
  PR (%) (partial tumor regression, >50% tumor reduction): 0%

## CC[C@@]1(O)C(=O)OCc2c1cc1n(c2=O)Cc2cc3c(CN(C)C)c(O)ccc3nc2-1 [Topotecan, topotecan]
[1]; [9]
  CR (%) (complete tumor regression): 0%
  PR (%) (partial tumor regression, >50% tumor reduction): 0%
[4]; [7]
  PR (%) (partial tumor regression, >50% tumor reduction): 0%
[4]; [8]
  CR (%) (complete tumor regression): 0%

## O=P1(N(CCCl)CCCl)NCCCO1 (stereo not drawn) [Cyclophosphamide, cyclophosphamide]
[1]; mouse, in vivo
  CR (%) (complete tumor regression): 0%
  PR (%) (partial tumor regression, >50% tumor reduction): 0%
In vivo [2]
  MTD: 100 mg/kg
[4]; mouse, in vivo
  CR (%) (complete tumor regression): 0%
  PR (%) (partial tumor regression, >50% tumor reduction): 0%

## CCc1c2c(nc3ccc(OC(=O)N4CCC(N5CCCCC5)CC4)cc13)-c1cc3c(c(=O)n1C2)COC(=O)[C@]3(O)CC [Irinotecan, irinotecan]
HT-29 colon xenografts; [10]
  HT-29 CR (%): 0%
  HT-29 PR (%): 0%
HT-29 colon xenografts; irinotecan 100 mg/kg/wk × 4
  % CR of Surviving Animals HT-29: 0%
HT-29 colon xenografts; irinotecan 200 mg/kg/wk × 4
  % CR of Surviving Animals HT-29: 10%
Nude mice [5]; irinotecan 100 mg/kg/wk × 4 i.v.
  Survivor (%): 100%
Nude mice [5]; irinotecan 200 mg/kg/week × 4 alone (Example 8)
  survivorship: 45%
Nude mice [5]; irinotecan 200 mg/kg/wk × 4 i.v.
  Survivor (%): 50%
Nude mice [5]; irinotecan 300 mg/kg/wk × 4, alone or with MSC
  lethality: 100%
Nude mice [5]; irinotecan 300 mg/kg/wk × 4 i.v.
  Survivor (%): 0%
HCT-8 colon xenografts; [10]
  HCT-8 CR (%): 20%
  HCT-8 PR (%): 20%
HCT-8 colon xenografts; irinotecan 100 mg/kg/wk × 4
  % CR of Surviving Animals HCT-8: 20%
HCT-8 colon xenografts; irinotecan 200 mg/kg/wk × 4
  % CR of Surviving Animals HCT-8: 30%
[1]; [9]
  CR (%) (complete tumor regression): 10%
  PR (%) (partial tumor regression, >50% tumor reduction): 30%
[1]; irinotecan 100 mg/kg/wk × 4, without or with MSC 0.2 mg/mouse/d
  % CR of Surviving Animals A253: 20%
[1]; irinotecan 200 mg/kg/wk × 4, without or with MSC or SLM 0.2 mg/mouse/d
  % CR of Surviving Animals A253: 40%
Mice; weekly i.v. for 4 weeks, nude mice
  maximum tolerated weekly dose: 100 mg/kg/wk
[4]; [7]
  PR (%) (partial tumor regression, >50% tumor reduction): 50%
[4]; [8]
  CR (%) (complete tumor regression): 30%
[4]; irinotecan 100 mg/kg/wk × 4
  % CR of Surviving Animals FaDu: 30%
[4]; irinotecan 200 mg/kg/wk × 4
  % CR of Surviving Animals FaDu: 50%

## COc1cccc2c1C(=O)c1c(O)c3c(c(O)c1C2=O)C[C@@](O)(C(=O)CO)C[C@@H]3O[C@H]1C[C@H](N)[C@H](O)[C@H](C)O1 [Doxorubicin, doxorubicin]
[1]; [9]
  CR (%) (complete tumor regression): 0%
  PR (%) (partial tumor regression, >50% tumor reduction): 60%
Mice; nude, mouse, in vivo
  MTD (mg/kg) Mice: 10 mg/kg
In vivo [6]
  MTD: 6 mg/kg
[4]; [7]
  PR (%) (partial tumor regression, >50% tumor reduction): 0%
[4]; [8]
  CR (%) (complete tumor regression): 0%
